The record followed here is patent US20260262641A1 (priority 2023, published 2026).

Format in all cases: in vivo
Experiment [1] relates to ground pearl (Margarodes spp). Nature of the experiment: Field trial in kikuyu turf, control of ground pearl, Robina (Example 6). As to conditions: for Ground pearls/plot, Adults, Pre-spray / Ground pearls/plot, Eggs, Pre-spray: Pre-spray (baseline), 20 cores per plot; for density of ground pearl eggs and adults (in words) / turf vigor (in words): versus untreated, P<0.05. Here is the method: A field trial was conducted in kikuyu turf, to evaluate fenpyroximate for control of ground pearl (Margarodes spp). The trial was located at Robina, Queensland (−28.069442, 153.401817), in an area with a known infestation of ground pearl.
All treatments were applied using a hand boom fitted with XC08 nozzles, in a spray volume of 443 L/ha.
The ground pearl density by species was assessed prior to the first application and again 21 days after the third application by sampling 20 cores per plot and recording the number of eggs and adults. Turf vigor was assessed on a 0 to 10 rating scale (0=dead; 10=best quality/color) prior to the first application and 42 days after the third application.
(§1) All data was statistically analyzed using analysis of variance and Fisher's protected least significant different test (Fishers LSD). The level of significance for all tests was P<0.05.

The subject of experiment [2] is ground pearl (Margarodes spp). Nature of the experiment: Field trial in kikuyu turf, control of ground pearl, Sydney (Example 2). The conditions noted are these: for NDVI, Pre-spray: Pre-spray (baseline), kikuyu turf, Greenseeker; for Ground pearls/plot, Adults, Pre-spray / Ground pearls/plot, Eggs, Pre-spray / Ground pearls/plot, Adults, 56 DAA3 / Ground pearls/plot, Eggs, 56 DAA3 / NDVI, 56 DAA3: sc; for Ground pearls/plot, Adults, 56 DAA3 / Ground pearls/plot, Eggs, 56 DAA3: 200 g/ha; for Ground pearls/plot, Adults, 56 DAA3 / Ground pearls/plot, Eggs, 56 DAA3 / NDVI, 56 DAA3: 1344 h. Here is the method: A field trial was conducted in kikuyu turf, to evaluate fenpyroximate for control of ground pearl (Margarodes spp). The trial was located at Sydney University, New South Wales (−33.888, 151.188), in an area with a known infestation of ground pearl.
All treatments were applied using a hand boom fitted with XR11004 nozzles, in a spray volume of 430 L/ha.
The ground pearl density by species was assessed by sampling 20 cores per plot and recording the number of eggs and adults, and Normalized Difference Vegetation Index (NDVI) was assessed 56 days after the third application using a Greenseeker.
as §1

In experiment [3] the test system is ground pearl (Margarodes spp). In words: Field trial in kikuyu turf, control of ground pearl, Robina (Example 6). As to conditions: sc.
The mark [4] stands for this setting: versus untreated, P<0.05, with PE 6200.

Turning to `O=[N+]([O-])NC1=NCCN1Cc1ccc(Cl)nc1` [Kohinor 350 SC, Imidacloprid], in experiment [1], the “Turf vigor (0-10), Pre-spray” value amounted to 5.1; the “Ground pearls/plot, Adults, Pre-spray” value was 5.7 ground pearls/plot; the “Ground pearls/plot, Eggs, Pre-spray” value is reported as 2.0 ground pearls/plot; the “density of ground pearl eggs and adults (in words)” value is recorded as “significantly reduced”. The “turf vigor (in words)” value in experiment [1] is “significantly improved”. Besides, in experiment [2], the “NDVI, Pre-spray” value turned out to be 8.25; the “Ground pearls/plot, Adults, Pre-spray” value was found to be 10.5 a ground pearls/plot; the “Ground pearls/plot, Eggs, Pre-spray” value came to 9.0 a ground pearls/plot; the “Ground pearls/plot, Adults, 56 DAA3” value is reported as 13.8 a ground pearls/plot. For the same compound, in experiment [2], the “Ground pearls/plot, Eggs, 56 DAA3” value is reported as 12.5 cd ground pearls/plot and the “NDVI, 56 DAA3” value came to 7.8. Further, in experiment [2] (setting [4]), the “density of ground pearl eggs (in words)” value was “did not reduce”. Moreover, in experiment [3], the “Turf vigor (0-10), 56 DAA3” value stood at 5.9 a.
Consider `CN1COCN(Cc2cnc(Cl)s2)/C1=N\[N+](=O)[O-]` [Meridian, Thiamethoxam], for which, in experiment [1], the “Turf vigor (0-10), Pre-spray” value is 5.1; the “Ground pearls/plot, Adults, Pre-spray” value is reported as 6.0 ground pearls/plot; the “Ground pearls/plot, Eggs, Pre-spray” value is reported as 3.0 ground pearls/plot; the “density of ground pearl eggs and adults (in words)” value is “significantly reduced”. In addition, the “turf vigor (in words)” value in experiment [1] is given as “significantly improved”. Further, in experiment [2], the “NDVI, Pre-spray” value is recorded as 7.5; the “Ground pearls/plot, Adults, Pre-spray” value was determined as 15.5 a ground pearls/plot; the “Ground pearls/plot, Eggs, Pre-spray” value turned out to be 7.8 a ground pearls/plot; the “Ground pearls/plot, Adults, 56 DAA3” value was determined as 9.8 a ground pearls/plot. Further, in experiment [2], the “Ground pearls/plot, Eggs, 56 DAA3” value was determined as 8.5 abc ground pearls/plot and the “NDVI, 56 DAA3” value is given as 7.5. In experiment [2] (setting [4]), the “density of ground pearl adults (in words)” value is “significantly reduced” and the “density of ground pearl eggs (in words)” value was “significantly reduced”. For the same compound, the “Turf vigor (0-10), 56 DAA3” value in experiment [3] worked out at 6.0 a.
